Results: patent US10766882B2, “1,2-naphthoquinone based derivative and method of preparing the same” (YUNGJIN PHARM. CO., LTD., priority 2013, dated 2020)

Legend:
[1] = tested on: Cells; assay: Measurement of lactate change amount within cells; format: cell-based; details: PCA extract of cells, lactate measured from supernatant (Megazyme, K-LATE)
Description: Cells were treated with 400 μl of 6% PCA, and then collected and extracted. Centrifugation (13,000 rpm, 10 min) was performed. A precipitate was dried using a Speed-Vac and then a weight of dried precipitate was measured. A supernatant was neutralized using 400 μl of 1 M KOH and a final volume thereof was adjusted to 1 ml using 0.33 M KH2PO4/K2HPO4, pH 7.5. Centrifugation (13,000 rpm, 10 min) was performed and the amount of lactate was measured from a supernatant (Megazyme, K-LATE).

[2] = tested on: C57BL/6J Lep ob/ob mice; assay: Weight loss effects in obese mice (ob/ob); format: in vivo; details: vs 0.1% SLS controls
Description: 10 week-old C57BL/6J Lep ob/ob mice having genetic obesity characteristics available from ORIENTBIO were prepared. Two mice were raised in each polycarbonate breeding cage (200 W×260 L×130H (mm), Three-shine) in which temperature was 20 to 24° C., relative humidity was 35 to 65%, illuminance was 150 to 300 lux, night and day were 12 hours, and exhaust was performed at 10 to 15 air changes per hour. As a feed, low fat diet (11.9 kcal % fat, 5053, Labdiet) manufactured by ORIENTBIO was used. The feed was contained in a feeder and free intake was allowed. As drinking water, water, which was contained in a 250 mL polycarbonate based bottle, purified through a filter and a sterilizer was used and free intake was allowed.
The compound according to Example 1 synthesized in the present invention was orally administered to three C57BL/6J Lep ob/ob mice in amounts of 40 mg/kg, 80 mg/kg, and 120 mg/kg, respectively, once every day for two weeks. For administration, a disposable syringe fitted with a sonde for oral administration was used and 10 ml/kg of the compound was orally administered into the stomach. As controls, three C57BL/6J Lep ob/ob mice were administered 0.1% sodium lauryl sulfate (SLS) in an amount of 120 mg/kg in the same manner as described above. After administration, a time-dependent weight increase ratio, weight change, and intake amount were measured and results are illustrated in FIG. 1 below.
Weights of the experimental animals were measured immediately before administration of a test material and seven times a week from an administration initiation day to a test termination day. Increased total weights were calculated by subtracting weights measured on an experiment initiation day from weights measured one day before an experiment termination day. Food intake amounts were calculated by measuring feed supply amounts and remaining amounts twice a week from an initiation day of test material administration to a test termination day for each individual. […]
(§1) Experiments were performed under the same conditions as in Experimental Example 3-1 except that 15 week-old C57BL/6J Lep ob/ob mice having genetic obesity characteristics available from ORIENTBIO were prepared, the compounds according to Examples 5 and 6 were administered to three C57BL/6J Lep ob/ob mice in an amount of 150 mg/kg, 150 mg/kg of 0.1% SLS was administered to each of three C57BL/6J Lep ob/ob mice as controls, and experiments were performed for a total of one week. Weight increase ratios, weight change, and intake amounts depending on administration time were measured and results are illustrated in FIG. 5 below.
as §1, with “that 10” for “that 15”, “Examples 8, 9,” for “Examples 5”, “and 12” for “and 6”, “FIG. 6” for “FIG. 5”
Experiments were performed under the same conditions as in Experimental Example 3-1 except that 6 week-old C57BL/6J Lep ob/ob mice having genetic obesity characteristics available from ORIENTBIO were prepared, the compounds according to Examples 17, 18, 22, and 23 were administered to three C57BL/6J Lep ob/ob mice in an amount of 100 mg/kg, 100 mg/kg of 0.1% SLS was administered to each of three C57BL/6J Lep ob/ob mice as controls, and experiments were performed for a total of one week. Weight increase ratios, weight change, and intake amounts depending on administration time were measured and results are illustrated in FIG. 10 below. […]

[3] = target: NQO1 protein (Homo sapiens, UniProt P15559); assay: NQO1 activity measurement (cytochrome C reduction); format: biochemical; details: 5 ng NQO1 protein, 200 μM NADH, 77 μM cytochrome C, 37° C., absorbance 550 nm for 10 minutes
[4] = Exp. Ex. 3-13, FIG. 16: 6 week-old ob/ob mice, 100 mg/kg oral, one week
[5] = Exp. Ex. 3-4, FIG. 4: 12 week-old ob/ob mice, 150 mg/kg oral, one week
[6] = Exp. Ex. 3-5, FIG. 5: 15 week-old ob/ob mice, 150 mg/kg oral, one week
[7] = Exp. Ex. 3-6, FIG. 6: 10 week-old ob/ob mice, 150 mg/kg oral, one week
[8] = Exp. Ex. 3-12, FIG. 15: 6 week-old ob/ob mice, 100 mg/kg oral, two weeks
[9] = Exp. Ex. 3-11, FIG. 14: 6.5 week-old ob/ob mice, 100 mg/kg oral, one week
[10] = Exp. Ex. 3-10, FIG. 13: 6 week-old ob/ob mice, 100 mg/kg oral, two weeks
[11] = Exp. Ex. 3-7, FIG. 10: 6 week-old ob/ob mice, 100 mg/kg oral, one week
[12] = Exp. Ex. 3-8, FIG. 11: 10 week-old ob/ob mice, 150 mg/kg oral, five days

Chain of NQO1 protein (P15559 whole entry, species assumed): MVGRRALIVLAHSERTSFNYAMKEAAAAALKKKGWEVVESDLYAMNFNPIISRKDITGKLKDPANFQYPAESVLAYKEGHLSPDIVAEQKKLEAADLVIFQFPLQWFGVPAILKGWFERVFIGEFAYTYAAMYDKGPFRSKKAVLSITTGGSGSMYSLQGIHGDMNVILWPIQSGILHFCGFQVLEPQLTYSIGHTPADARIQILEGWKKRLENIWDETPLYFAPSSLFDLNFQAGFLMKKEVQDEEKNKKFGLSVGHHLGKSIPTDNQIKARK

Question: Which “Lactate change amount within cells (nmol/mg cell)” value (shortened to “Lactate change amount within cells”) [1] does the source give for `CCc1nc2c(n1C)C(=O)C(=O)c1cc(F)ccc1-2` [Example 41, 2-ethyl-7-fluoro-3-methyl-3H-naphtho[2,1-d]imidazole-4,5-dione] here?
Answer: 7.2 nmol/mg cell

Question: What about the intake amount [2, 4] of the same compound?
Answer: significantly decreased in some sections

Question: And the weight change [2, 4]?
Answer: significantly decreased in some sections

Question: And the weight increase ratio [2, 4]?
Answer: significantly decreased in some sections

Question: And the “NQO1 activity (5 μM, [nmol cytochrome C reduced/min/μg protein])” value [3]?
Answer: 148.4 nmol cytochrome C reduced/min/μg protein

Question: For `CC(C)(C)c1nc2c([nH]1)C(=O)C(=O)c1ccccc1-2` [Example 5, 2-tert-butyl-3H-naphtho[2,1-d]imidazole-4,5-dione], which “Lactate change amount within cells” value [1] is on record?
Answer: 8.5 nmol/mg cell

Question: And the intake amount [2, 5]?
Answer: significantly decreased

Question: And the weight change [2, 5]?
Answer: significantly decreased

Question: And the weight increase ratio [2, 5]?
Answer: significantly decreased

Question: What about the intake amount [2, 6] of the same compound?
Answer: significantly decreased

Question: And the weight change [2, 6]?
Answer: significantly decreased

Question: And the weight increase ratio [2, 6]?
Answer: significantly decreased

Question: And the “NQO1 activity (5 μM, [nmol cytochrome C reduced/min/μg protein])” value [3]?
Answer: 153 nmol cytochrome C reduced/min/μg protein

Question: Which “Lactate change amount within cells” value [1] does the source give for `O=C1C(=O)c2[nH]c(-c3ccccc3)nc2-c2ccccc21` [Example 4, 2-phenyl-3H-naphtho[2,1-d]imidazole-4,5-dione] here?
Answer: 9.1 nmol/mg cell

Question: What about the weight change [2, 5] of the same compound?
Answer: significantly decreased

Question: And the weight increase ratio [2, 5]?
Answer: significantly decreased

Question: What about the “NQO1 activity (5 μM, [nmol cytochrome C reduced/min/μg protein])” value [3] of the same compound?
Answer: 122 nmol cytochrome C reduced/min/μg protein

Question: Which “Lactate change amount within cells” value [1] does the source give for `CCc1nc2c([nH]1)C(=O)C(=O)c1ccccc1-2` [Example 9] here?
Answer: 8.0 nmol/mg cell

Question: What about the intake amount [2, 7] of the same compound?
Answer: significantly decreased

Question: What about the weight change [2, 7] of the same compound?
Answer: significantly decreased

Question: And the weight increase ratio [2, 7]?
Answer: significantly decreased

Question: What about the “NQO1 activity (5 μM, [nmol cytochrome C reduced/min/μg protein])” value [3] of the same compound?
Answer: 172 nmol cytochrome C reduced/min/μg protein

Question: Which results are given for `CC(C)c1nc2c(n1Cc1ccc(F)cc1)C(=O)C(=O)c1ccccc1-2` [Example 33]?
Answer: Lactate change amount within cells (nmol/mg cell) [1]: 4.7 nmol/mg cell; intake amount [2, 8]: significantly decreased in some sections; weight change [2, 8]: significantly decreased in some sections; weight increase ratio [2, 8]: significantly decreased in some sections; NQO1 activity (5 μM, [nmol cytochrome C reduced/min/μg protein]) [3]: 152.5 nmol cytochrome C reduced/min/μg protein

Question: With `Cc1nc2c(n1C)C(=O)C(=O)c1ccccc1-2` [Example 96] as the compound, how does the “Lactate change amount within cells” value [1] read?
Answer: 5.7 nmol/mg cell

Question: And the intake amount [2, 9]?
Answer: significantly decreased in some sections

Question: And the weight change [2, 9]?
Answer: significantly decreased in some sections

Question: What about the weight increase ratio [2, 9] of the same compound?
Answer: significantly decreased in some sections

Question: And the “NQO1 activity (5 μM, [nmol cytochrome C reduced/min/μg protein])” value [3]?
Answer: 21.4 nmol cytochrome C reduced/min/μg protein

Question: With `O=C1C(=O)c2[nH]c(C3CCCCC3)nc2-c2ccccc21` [Example 6, 2-cyclohexyl-3H-naphtho[2,1-d]imidazole-4,5-dione] as the compound, how does the “Lactate change amount within cells” value [1] read?
Answer: 4.6 nmol/mg cell

Question: What about the intake amount [2, 6] of the same compound?
Answer: significantly decreased

Question: What about the weight change [2, 6] of the same compound?
Answer: significantly decreased

Question: And the weight increase ratio [2, 6]?
Answer: significantly decreased

Question: What about the “NQO1 activity (5 μM, [nmol cytochrome C reduced/min/μg protein])” value [3] of the same compound?
Answer: 253 nmol cytochrome C reduced/min/μg protein

Question: With `CC(C)c1nc2c(n1C)C(=O)C(=O)c1ccccc1-2` [Example 35] as the compound, how does the “Lactate change amount within cells” value [1] read?
Answer: 8.1 nmol/mg cell

Question: What about the intake amount [2, 10] of the same compound?
Answer: significantly decreased in some sections

Question: What about the weight change [2, 10] of the same compound?
Answer: significantly decreased in some sections

Question: What about the weight increase ratio [2, 10] of the same compound?
Answer: significantly decreased in some sections

Question: And the intake amount [2, 8]?
Answer: significantly decreased in some sections

Question: And the weight change [2, 8]?
Answer: significantly decreased in some sections

Question: And the weight increase ratio [2, 8]?
Answer: significantly decreased in some sections

Question: And the “NQO1 activity (5 μM, [nmol cytochrome C reduced/min/μg protein])” value [3]?
Answer: 190.3 nmol cytochrome C reduced/min/μg protein

Question: How did the “Lactate change amount within cells” value [1] turn out when `CC(C)c1nc2c([nH]1)C(=O)C(=O)c1cc(N(C)C)ccc1-2` [Example 23] was run?
Answer: 5.6 nmol/mg cell

Question: What about the intake amount [2, 11] of the same compound?
Answer: significantly decreased in some sections

Question: And the weight change [2, 11]?
Answer: significantly decreased in some sections

Question: What about the weight increase ratio [2, 11] of the same compound?
Answer: significantly decreased in some sections

Question: What about the “NQO1 activity (5 μM, [nmol cytochrome C reduced/min/μg protein])” value [3] of the same compound?
Answer: 78.4 nmol cytochrome C reduced/min/μg protein

Question: Which “Lactate change amount within cells” value [1] does the source give for `CCc1nc2c([nH]1)C(=O)C(=O)c1cc(F)ccc1-2` [Example 26] here?
Answer: 5.7 nmol/mg cell

Question: What about the intake amount [2, 12] of the same compound?
Answer: significantly decreased in some sections

Question: What about the weight change [2, 12] of the same compound?
Answer: significantly decreased in some sections

Question: And the weight increase ratio [2, 12]?
Answer: significantly decreased in some sections

Question: What about the “NQO1 activity (5 μM, [nmol cytochrome C reduced/min/μg protein])” value [3] of the same compound?
Answer: 223.5 nmol cytochrome C reduced/min/μg protein

Question: Which results are given for `CCc1nc2c([nH]1)C(=O)C(=O)c1cc(Cl)ccc1-2` [Example 45, 7-chloro-2-ethyl-3H-naphtho[2,1-d]imidazole-4,5-dione]?
Answer: Lactate change amount within cells (nmol/mg cell) [1]: 5.7 nmol/mg cell; intake amount [2, 4]: significantly decreased in some sections; weight change [2, 4]: significantly decreased in some sections; weight increase ratio [2, 4]: significantly decreased in some sections; NQO1 activity (5 μM, [nmol cytochrome C reduced/min/μg protein]) [3]: 188.6 nmol cytochrome C reduced/min/μg protein

Question: For `CC(C)c1nc2c([nH]1)C(=O)C(=O)c1cc(N)ccc1-2` [Example 18], which “Lactate change amount within cells” value [1] is on record?
Answer: 6.6 nmol/mg cell

Question: What about the intake amount [2, 11] of the same compound?
Answer: significantly decreased in some sections

Question: What about the weight change [2, 11] of the same compound?
Answer: significantly decreased in some sections

Question: What about the weight increase ratio [2, 11] of the same compound?
Answer: significantly decreased in some sections

Question: What about the “NQO1 activity (5 μM, [nmol cytochrome C reduced/min/μg protein])” value [3] of the same compound?
Answer: 177.5 nmol cytochrome C reduced/min/μg protein
